Experimental data as given in patent US20190000850A1, “COMBINATION CANCER THERAPY” (The Regents of the University of California, priority 2015, published 2019).
“Also recorded” adds a separate entry of the source.

How the values were obtained:
CEM-R-EYFP = assay: DNA-G biosynthesis labeling in isogenic CEM-R line; type: cell-based; conditions: 6-TG treatment
Method: (§1) We utilized an isogenic cell line, CEM-R (Owen 1992), which lacks the enzymes dCK and HPRT that are necessary for the salvage pathways for DNA-G biosynthesis. CEM-R cells were engineered to express enhanced yellow fluorescent protein (CEM-R-EYFP, a negative control) and human HPRT (CEM-R-HPRT) and were confirmed by WB. The labeled media contained […] [U-^13C6]glucose to represent the de novo contribution and 5 μM [^15N5]dG to represent salvage pathways, particularly HPRT-dependent nucleobase salvaging. CEM-R-EYFP relied exclusively on the de novo pathway for the DNA-G biosynthesis. In contrast, CEM-R-HPRT utilized both de novo and nucleobase salvage pathways nearly equally.
(§2) The pMSCV-HPRT-IRES-EYFP and pMSCV-TK1-IRES-EYFP plasmids were generated by inserting the human HPRT and TK1 coding sequence into the multiple cloning sites of the MSCV-IRES-EYFP plasmid, respectively. The pMSCV-hdCK-IRES-EYFP plasmid was generated as previously described (Laing RE 2010). Amphotropic retroviruses were generated by transient co-transfection of the MSCV retroviral plasmid and pCL-10A1 packaging plasmid into Phoenix-Ampho packaging cells. To generate EL4-EYFP, EL4-TK1, CEM-R-EYFP, CEM-R-dCK and CEM-R-HPRT lines, parental cells underwent spin-fection with the respective amphotropic retrovirus and were then sorted by flow cytometry to isolate pure populations of transduced cells. […]

CEM-R-HPRT = assay: DNA-G biosynthesis labeling in isogenic CEM-R line; type: cell-based; conditions: 6-TG treatment
Method: as §1, §2

leukemia cell growth = assay: IC50 (cytotoxicity assay) of RNR inhibitors, Table 1; type: cell-based; conditions: 3-AP: cell type independent
Method: (§3) Cells were plated in a 384-well plate (1,000 cells/well for suspension cell lines and 500 cells/well for adherent cell lines in 30 μL). For suspension cell lines, the plate was incubated in 37° C. for 1 h to let the cells settle. For adherent cell lines, the plate was incubated overnight to allow the cells to seed. During incubation, drugs were diluted to desired concentration by serial dilution, vehicle condition was created by adding equivalent amount of DMSO. After incubation, 10 μL of diluted drugs were added to each well, and incubated for 72 h. After incubation, Cell TiterGlo reagent was added to each well according to manufacturer's instructions (Promega, CellTiter-Glo® Luminescent Cell Viability Assay). The plates were shaken for 2 min and incubated in dark for 8 min. Luminescence readings were obtained with luminometer (Molecular devices, SpectraMax).

[1] = Solubility study in phosphate buffer solution; type: physicochemical; conditions: aqueous buffer
[2] = test system: dCK activity in p185^BCR-ABLArf^−/− pre-B cells; assay: ^3H-FAC uptake to evaluate dCK activity; type: cell-based, mouse; conditions: after 1 h with 3-AP treatment
CEM cells [3] = assay: Inhibition of CEM cell growth by RNR inhibitors, 72 h; type: cell-based
Method: as §3

[4] = test system: p185^BCR-ABLArf^−/− pre-B cells; assay: dCTP pool and DNA-C measurement with [U-^13C9,^15N3]dC and [U-^13C6]glucose; type: cell-based, mouse; conditions: 3, 6, 9 and 12 h treatment
Method: Therefore, p185^BCR-ABLArf^−/− pre-B cells were labeled with [U-^13C9,^15N3]dC and [U-^13C6]glucose to measure the contribution of salvage pathway via dCK and de novo pathway via RNR, respectively.
(§4) The cells were incubated for 18 h or as indicated in the text before samples collection and processing.

CEM T-ALL cells = assay: ssDNA (F7-26) and pH2A.X measurement by FACS; type: cell-based; conditions: 3-AP 500 nM; 0.5, 4 and 18 h
Method: Cells were harvested and fixed and permeabilized with cytofix/cytoperm (BD biosciences) for 15 min in dark on ice. Cells were washed and subsequently resuspended in 100 μL 1× Perm/wash buffer (BD Sciences) for 15 min on ice. Cells were washed and subsequently resuspended in 50 μL with phospho-Histone H2A.X (Ser139) antibody conjugated to fluorochrome FITC (EMD Milipore, 1:800 dilutions in perm/wash) for 20 min in dark at ambient temperature. […] Cells were harvested and fixed with ice-cold methanol:PBS (6:1) for 24 h. Staining with F7-26 monoclonal antibody (Mab) was performed according to manufacturer's instructions (EMD Milipore). Fixed cells were resuspended in 250 μL of formamide and heated in a water bath at 75° C. for 10 min. Cells were then allowed to return to room temperature and then washed with 2 ml of 1% non-fat dry milk in PBS for 15 min. Subsequently, cells were resuspended in 100 μL of anti-ssDNA Mab F7-26 (EMD Milipore, 1:10 in 5% FBS in PBS) and incubated for 45 min at room temperature. Cells were washed with PBS and stained with 100 μL of fluorescence-conjugated goat anti-mouse IgM antibody (Santa Cruz Biotechnology, 1:50) for 45 min at room temperature.

CEM cells [5] = assay: Mass spectrometric assay of de novo (RNR) and salvage (dCK) contribution to dCTP and DNA-C; type: cell-based
Method: To analyze the differential utilization of de novo and nucleotide biosynthetic salvage pathways, cultured cells were incubated with stable isotope labeled DNA precursors. […] Extracted dNTP and DNA were analyzed in a triple quadrupole mass spectrometer (QQQ) using multiple reaction monitoring (MRM). The first (Q1) and third (Q3) quadrupoles function as mass filters while the second (Q2) quadrupole serves as a collision chamber. […] In Q2, the glycosidic bond of the selected dC is cleaved, releasing a protonated nucleobase (NB) fragment and a neutral deoxyribose (dR) molecule. The m/z specific NB fragments from dC is separated in Q3 and detected to generate ion chromatograms. […] Each identifier corresponded to a specific biosynthetic pathway and is defined as [x;y], where “x” is the number of heavy isotope-labeled atoms in NB and “y” is the number of heavy isotope atoms in dR. […] According to current biochemical maps of nucleotide metabolism, the [7;5] identifier can only arise from salvaging [U-^13C9,^15N3]dC into newly synthesized DNA. In contrast, a dC with a [0,5] identifier is a product of the de novo pathway. The ratio of the peak areas in the ion chromatograms of salvage [7;5] and de novo [0;5] identifiers describes the relative contributions of the two biosynthetic routes to the dCTP pool used for DNA replication.
as §4
Genomic DNA was extracted using the Quick-gDNA MiniPrep kit (Zymo Research, D3021) and hydrolyzed to nucleosides using the DNA Degradase Plus kit (Zymo Research, E2021) following manufacturer-supplied instructions. In the final step of DNA extraction, 50 μL of water was used to elute the DNA. A nuclease premix solution was prepared by mixing 10× buffer, DNA degradase Plus™ and water in the ratio of 2.5/1/1.5 (v/v/v). DNA hydrolysis reaction was prepared in mass spec vials by mixing 5 μL of the nuclease premix solution (5 U of enzyme) and 20 μL of eluted genomic DNA, the total volume becomes 25 μL. The samples were tapped and flicked downward prior to overnight before incubation at 37° C.
Cells were collected into microcentrifuge tube and centrifuged (450×g, 4 min, 4° C.). The supernatant was carefully aspirated. The cells were washed twice by the addition of 1 mL of cold PBS and centrifugation (450×g, 4 min 4° C.). PBS washes were aspirated. Thereafter, cells were lysed in 40 μL of 70% methanol/water (v/v), vortexed (30 s) and incubated on ice for 10 min. Then 40 μL of chloroform (Fisher) was added, vortexed (30 s) and incubated on ice for another 10 min. The samples were then centrifuged at max speed for 10 min at 4° C. Finally, the supernatant was transferred (≈25 μL) into a mass spec vial.
For genomic DNA and media analysis, an aliquot of DNA hydrolysis or media samples (20 μL) was injected directly onto a porous graphitic carbon column (Thermo Fisher Scientific Hypercarb, 100×2.1 mm, 5 μm particle size) equilibrated in solvent A (water/acetonitrile/formic acid, 95/5/0.2, v/v/v) and eluted (200 μL/min) with an increasing concentration of solvent B (acetonitrile/water/formic acid, 90/10/0.2, v/v/v): min/% B/flow rate (μL/min); 0/0/200, 5/0/200, 10/15/200, 20/15/200, 21/40/200, 25/50/200, 26/100/700, 30/100/700, 3I/O/700, 34/0/700, 35/0/200).

PANC-1 PDAC cells = assay: Cell-Titer-Glo viability assay, 72 h; type: cell-based; conditions: Homo sapiens, PANC-1, read-out: IC50 of VE-822
Method: as §3

CEM T-ALL = assay: Cell-Titer-Glo viability assay, 72 h; type: cell-based; conditions: read-out: IC50 of VE-822
Method: as §3

ATM = ATM (Homo sapiens, UniProt Q13315); conditions: cited from earlier work
ATM, sequence (Q13315 whole entry, species assumed): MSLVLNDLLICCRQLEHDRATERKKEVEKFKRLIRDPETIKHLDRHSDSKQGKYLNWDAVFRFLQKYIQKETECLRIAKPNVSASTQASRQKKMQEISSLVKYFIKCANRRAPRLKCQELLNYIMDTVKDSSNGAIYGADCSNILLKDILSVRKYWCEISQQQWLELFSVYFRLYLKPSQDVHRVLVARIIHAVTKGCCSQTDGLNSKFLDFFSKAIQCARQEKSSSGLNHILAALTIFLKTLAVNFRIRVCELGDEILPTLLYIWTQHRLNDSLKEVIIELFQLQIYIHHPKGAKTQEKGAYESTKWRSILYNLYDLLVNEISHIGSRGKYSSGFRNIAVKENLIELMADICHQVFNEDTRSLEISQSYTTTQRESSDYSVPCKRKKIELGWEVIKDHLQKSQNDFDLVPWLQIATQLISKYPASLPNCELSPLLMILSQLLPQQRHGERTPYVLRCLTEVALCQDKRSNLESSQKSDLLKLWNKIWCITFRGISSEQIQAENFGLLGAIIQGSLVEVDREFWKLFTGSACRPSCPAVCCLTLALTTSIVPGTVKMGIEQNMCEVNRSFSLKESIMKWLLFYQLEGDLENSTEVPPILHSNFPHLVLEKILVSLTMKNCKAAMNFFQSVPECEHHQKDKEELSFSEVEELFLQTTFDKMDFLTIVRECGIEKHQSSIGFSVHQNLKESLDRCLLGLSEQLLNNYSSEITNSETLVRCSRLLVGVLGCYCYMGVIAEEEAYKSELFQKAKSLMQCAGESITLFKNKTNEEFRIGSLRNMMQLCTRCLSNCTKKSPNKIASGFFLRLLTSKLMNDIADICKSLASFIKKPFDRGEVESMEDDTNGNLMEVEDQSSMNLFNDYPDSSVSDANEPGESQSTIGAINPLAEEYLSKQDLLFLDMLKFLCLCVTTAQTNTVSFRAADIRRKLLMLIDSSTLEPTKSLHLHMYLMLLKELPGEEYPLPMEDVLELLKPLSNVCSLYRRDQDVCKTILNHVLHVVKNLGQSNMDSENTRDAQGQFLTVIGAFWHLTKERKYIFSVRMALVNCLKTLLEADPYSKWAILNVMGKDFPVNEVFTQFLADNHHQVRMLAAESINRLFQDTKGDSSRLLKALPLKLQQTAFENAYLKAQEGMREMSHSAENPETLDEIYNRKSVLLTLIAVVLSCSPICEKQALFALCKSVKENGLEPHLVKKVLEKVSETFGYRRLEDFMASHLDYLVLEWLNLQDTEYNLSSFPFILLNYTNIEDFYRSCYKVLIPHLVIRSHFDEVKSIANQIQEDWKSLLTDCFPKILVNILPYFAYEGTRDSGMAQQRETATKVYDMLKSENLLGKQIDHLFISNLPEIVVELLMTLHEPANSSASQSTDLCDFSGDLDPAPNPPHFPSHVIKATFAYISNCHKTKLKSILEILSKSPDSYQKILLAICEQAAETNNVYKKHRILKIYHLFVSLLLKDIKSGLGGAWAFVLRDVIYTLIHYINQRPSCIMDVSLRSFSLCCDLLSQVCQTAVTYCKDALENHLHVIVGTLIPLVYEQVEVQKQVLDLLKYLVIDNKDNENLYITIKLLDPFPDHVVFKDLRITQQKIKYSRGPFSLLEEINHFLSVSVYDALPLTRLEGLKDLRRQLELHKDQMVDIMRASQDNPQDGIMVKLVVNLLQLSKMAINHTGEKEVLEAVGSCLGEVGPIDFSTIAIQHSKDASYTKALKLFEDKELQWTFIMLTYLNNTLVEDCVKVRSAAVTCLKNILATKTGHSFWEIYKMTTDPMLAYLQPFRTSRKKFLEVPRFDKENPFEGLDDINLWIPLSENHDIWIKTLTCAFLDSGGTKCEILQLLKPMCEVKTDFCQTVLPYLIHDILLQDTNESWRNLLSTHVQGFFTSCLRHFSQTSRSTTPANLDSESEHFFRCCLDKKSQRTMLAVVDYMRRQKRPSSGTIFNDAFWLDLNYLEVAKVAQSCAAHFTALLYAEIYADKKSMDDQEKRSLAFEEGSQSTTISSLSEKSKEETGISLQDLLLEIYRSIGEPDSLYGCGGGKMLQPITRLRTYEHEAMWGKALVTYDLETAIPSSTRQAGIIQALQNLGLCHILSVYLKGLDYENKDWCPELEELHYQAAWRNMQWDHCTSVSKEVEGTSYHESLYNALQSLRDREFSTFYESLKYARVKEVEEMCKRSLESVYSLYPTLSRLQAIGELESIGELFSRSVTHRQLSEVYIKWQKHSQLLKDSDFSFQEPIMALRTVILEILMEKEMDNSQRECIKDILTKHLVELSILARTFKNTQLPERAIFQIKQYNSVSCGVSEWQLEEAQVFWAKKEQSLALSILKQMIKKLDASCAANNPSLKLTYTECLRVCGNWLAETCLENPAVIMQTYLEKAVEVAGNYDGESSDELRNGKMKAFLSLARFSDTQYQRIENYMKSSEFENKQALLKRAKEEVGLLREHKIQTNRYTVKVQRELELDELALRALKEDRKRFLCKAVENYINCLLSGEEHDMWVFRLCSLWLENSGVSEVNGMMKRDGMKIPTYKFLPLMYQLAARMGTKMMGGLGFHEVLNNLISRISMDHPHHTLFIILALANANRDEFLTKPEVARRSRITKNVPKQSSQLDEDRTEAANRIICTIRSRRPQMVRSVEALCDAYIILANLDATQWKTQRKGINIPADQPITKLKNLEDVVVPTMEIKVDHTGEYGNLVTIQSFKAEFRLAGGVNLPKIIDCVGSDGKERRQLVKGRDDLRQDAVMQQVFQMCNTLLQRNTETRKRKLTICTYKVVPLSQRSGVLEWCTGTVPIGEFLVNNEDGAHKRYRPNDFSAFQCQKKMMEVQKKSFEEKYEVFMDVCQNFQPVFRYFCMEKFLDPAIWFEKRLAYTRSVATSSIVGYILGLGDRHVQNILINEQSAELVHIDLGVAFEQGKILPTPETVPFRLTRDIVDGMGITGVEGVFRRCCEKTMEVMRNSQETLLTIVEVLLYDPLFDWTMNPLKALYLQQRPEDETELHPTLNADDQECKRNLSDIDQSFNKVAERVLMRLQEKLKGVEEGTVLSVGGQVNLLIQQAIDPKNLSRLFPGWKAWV

[6] = test system: Chk1 and Claspin phosphorylation in CEM T-ALL cells; assay: Phosphoproteomics after G1 release; type: cell-based, human; conditions: with and without DI-82; 6 and 12 h after G1 release
Method: Cells were treated with a CDK4/6 inhibitor, PD-0332991 (Selleckchem) for 18 h to arrest in G1 phase. Cells were then washed twice with PBS and released in fresh media with treatment at a density of 0.5×10^6 cells/ml. Cells were collected at time point 6 and 12 h and solubilized using 0.5% sodium deoxycholate, 12 mM sodium lauryl sarcosine, and 50 mM triethylammonium bicarbonate pH 8.0 with 1 mL per 5×10^7 cells with trituration and vortexing. Cell lysates were heated at 95° C. for 5 min and water bath sonicated at RT for 5 min. Bicinchoninic acid protein assay (Pierce) was performed to determine protein concentration. […] Light, medium, and heavylabeled peptides were mixed 1:1:1, diluted with 0.1% formic acid to a final concentration of 3% acetonitrile and analyzed using 180 min data-dependent nLC-MS/MS on Thermo Orbitrap XL as later discussed. […] 5 uL of each SCX fraction was analyzed using 180 min data-dependent reverse-phase nLC-MS/MS on Thermo Orbitrap XL equipped with Eksigent Spark autosampler, Eksigent 2D nanoLC, and Phoenix ST Nimbus dual column source. […] Peptides were analyzed over 180 min linear gradient of 0-40% mobile phase B (97% acetonitrile, 3% dimethylsulfoxide, and 0.1% formic acid) at 300 nL/min. […]

[7] = test system: BCR-ABL p185^+/Arf^−/− pre B-ALL cells; assay: Systemic pre B-ALL model in C57BL/6 mice, bioluminescence imaging, survival, body weight; type: in vivo; conditions: VE-822 40 mg/kg orally once daily
Method: All drugs for oral administration were solubilized in Prototype 9′ (PEG-200:Transcutol:Labrasol:Tween-80 mixed in 5:3:1:1 ratio) as single agents or in combination. For i.p. administration, drugs were solubilized in PEG-400 and 1 mM Tris-HCl at a 1:1 (v:v) ratio. Dasatinib (LC Laboratories) was solubilized in 80 mM citric acid (pH 3.1, Boulos et al.) and was administered at a dose of 10 mg/kg by oral gavage. 2×10^5 luciferase expressing p185 cells were injected intravenously into C57BL/6 female mice for leukemia induction. All drugs were administered starting 6 or, 7 days after intravenous cell inoculation, when animals had developed a significant leukemic burden as monitored by bioluminescence imaging (IVIS Bioluminescence Imaging scanner). Dosing schedules are indicated in the text and figure legends. Mice were observed daily; those that became moribund during the trials (paralysis of hind limbs, significant body weight loss) were sacrificed immediately. Kaplan-Meier curves and Bioluminescence quantifications were generated using GraphPad Prism (v6.0f for Mac).
Mice were anesthetized with 2% isoflurane followed by an intraperitoneal injection of 50 μL (50 mg/ml) substrate luciferin. Mice were imaged with IVIS Bioluminescence Imaging scanner after 10 minutes after luciferin administration. […]

CCRF-CEM T-ALL cells = assay: EdU pulse assay of cell cycle progression after release from G1 arrest; type: cell-based; conditions: 12 h after release from G1
Method: Following release from G1, cells progress to early, mid and late S phase (defined as S1, S2 and S3, respectively) and G2/M. By 18 h following release in drug-free media, 42.5% of cells progressed to S3. […] Thus, dCK represents a resistance mechanism to ATR inhibition.
Cells were treated with a CDK4/6 inhibitor, PD-0332991 (Selleckchem) for 18 h to arrest in G1 phase. Subsequently, cells were washed and released into fresh media containing 10% FBS to monitor the progression of synchronized cells throughout the cell cycle by flow cytometry analysis.
For measuring cell cycle progression of synchronous population of cells, cells were first arrested in G1 phase, then washed and released in treated media. Before collecting and fixing cells at various time points, cells were pulse-labeled with 10 μM EdU for 1 h, and then click-labeled with azide-Alexa Fluor 647 (Invitrogen; Click-iT EdU Flow cytometry kit) according to manufacturer's protocol. Total DNA content was assessed by staining with FxCycle-Violet (Invitrogen) at 1 μg/mL final concentration in PBS containing 2% FBS.

With `Nc1nc2nc[nH]c2c(=S)[nH]1` [6-thioguanine] the “DNA-G biosynthesis” value (CEM-R-EYFP) was “remained unaffected” and the “decrease of de novo and salvage pathway labeling of DNA-G” value (CEM-R-HPRT) was roughly 10 fold.
With `NC(=S)N/N=C/c1ncccc1N` [3-AP, 3-aminopyridine-2-carboxyaldehyde-thiosemicarbazone] the IC50 (leukemia cell growth) was 1310 nM, the solubility [1] was less than 300 µg/mL and the “increase in ^3H-FAC uptake” value [2] was roughly 2.5 fold. For the same compound, the “IC50 lower than the other RNR inhibitors (dT, GaM, HU)” value (CEM cells [3]) was 50 to 150 fold, the “dCTP pool” value [4] was “increased their dCTP pool” and the “RS and DNA damage biomarker expression (ssDNA, pH2A.X), words” value (CEM T-ALL cells) was “minimally induced”. For the same compound, the “effect on de novo dCTP pool” value (CEM cells [5]; 3-AP at 500 nM, 18 h) was “did not affect” and the “increase in salvage dCTP pool” value (CEM cells [5]; 3-AP at 500 nM, 18 h) was 2 fold.
In the case of `CNCc1ccc(-c2cc(-c3nc(-c4ccc(S(=O)(=O)C(C)C)cc4)cnc3N)on2)cc1` [VE-822], the IC50 (PANC-1 PDAC cells) is listed as 3000 nM, the IC50 (CEM T-ALL) is listed as roughly 300 nM and the IC50 (ATM) is listed as 34000 nM. The “phosphorylation of Chk1 and Claspin compared to untreated cells” value [6] was “decreased phosphorylation”, the “efficacy of single agent therapy in vivo” value [7] was “not capable of eradicating p185 cells in vivo; also recorded: marginally efficacious” and the “decrease in the number of cells in S2” value (CCRF-CEM T-ALL cells) was 16%. The “effect on dCTP pool levels compared to untreated” value (CEM cells [5]; G1 released CEM cells) was “did not significantly impact” and the “total DNA-C labeling, less than untreated controls” value (CEM cells [5]; G1 released CEM cells) was 30%.
